Laboratory results: US20260027116A1, “Methods of Treating Chronic Graft-Versus-Host Disease Following Allogeneic Hematopoietic Stem Cell Transplantation” (Kadmon Corporation, LLC, priority 2022, published 2026)

Key:
lung function = assay: Example 1: percent predicted FEV1 change from baseline; assay type: in vivo, human
Method: Change From Baseline in Percent Predicted Forced Expiratory Volume in 1 Second (FEV1) at Each Specified Time Points. FEV1 was the volume of air exhaled from the lungs in the first second of a forced expiration as measured by spirometer. Baseline value was defined as valid and last non-missing value obtained within 28 days prior to participant receiving first study medication. EOT visit was performed within 3 days after the participant's last dose of study drug. […] Analysis was performed on mITT population. Here, ‘number analyzed’=participants with available data for each specified category. Here, ‘O’ in the number analyzed field signifies that none of the participants were available for the analysis at the specified time points.

BCRP = target: T1, BCRP (Homo sapiens, UniProt Q9UNQ0); assay: transporter inhibition in vitro; assay type: in vitro ADME; conditions: at clinically relevant concentrations
T1 sequence (Q9UNQ0 1-655): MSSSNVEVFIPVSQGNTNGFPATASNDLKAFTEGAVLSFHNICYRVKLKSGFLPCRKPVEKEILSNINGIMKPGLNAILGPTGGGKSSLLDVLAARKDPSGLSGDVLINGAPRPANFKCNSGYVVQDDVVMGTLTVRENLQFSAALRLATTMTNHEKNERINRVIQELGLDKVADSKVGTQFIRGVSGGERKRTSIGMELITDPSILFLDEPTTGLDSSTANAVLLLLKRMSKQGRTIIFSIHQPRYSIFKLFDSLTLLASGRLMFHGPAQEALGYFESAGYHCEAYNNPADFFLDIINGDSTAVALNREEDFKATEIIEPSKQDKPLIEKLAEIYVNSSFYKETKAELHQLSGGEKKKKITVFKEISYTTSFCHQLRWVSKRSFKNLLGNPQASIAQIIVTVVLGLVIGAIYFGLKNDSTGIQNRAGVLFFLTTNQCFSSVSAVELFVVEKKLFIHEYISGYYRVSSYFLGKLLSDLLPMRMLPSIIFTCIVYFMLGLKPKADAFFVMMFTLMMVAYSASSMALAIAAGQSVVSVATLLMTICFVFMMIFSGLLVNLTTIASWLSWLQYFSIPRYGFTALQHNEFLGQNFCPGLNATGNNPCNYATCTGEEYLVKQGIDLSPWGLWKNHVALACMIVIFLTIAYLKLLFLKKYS

## CC(C)NC(=O)COc1cccc(-c2nc(Nc3ccc4[nH]ncc4c3)c3ccccc3n2)c1 [Belumosudil, 2-{3-[4-(1H-indazol-5-ylamino)-2-quinazolinyl]phenoxy}-N-(propan-2-yl) acetamide]
Lung function; Cohort 2: 200 mg BID, Cycle 9, Day 1
  Change From Baseline in Percent Predicted Forced Expiratory Volume in 1 Second (FEV1), Mean (Standard Deviation): −5.9 (11.7) percent predicted FEV1
Lung function; Cohort 2: 200 mg BID, Cycle 10, Day 1
  Change From Baseline in Percent Predicted Forced Expiratory Volume in 1 Second (FEV1), Mean (Standard Deviation): −6.0 (8.5) percent predicted FEV1
Lung function; Cohort 2: 200 mg BID, Cycle 11, Day 1
  Change From Baseline in Percent Predicted Forced Expiratory Volume in 1 Second (FEV1), Mean (Standard Deviation): −4.0 (8.5) percent predicted FEV1
Lung function; Cohort 2: 200 mg BID, Cycle 12, Day 1
  Change From Baseline in Percent Predicted Forced Expiratory Volume in 1 Second (FEV1), Mean (Standard Deviation): −1.0 (—) percent predicted FEV1
Lung function; Cohort 2: 200 mg BID, Cycle 13, Day 1
  Change From Baseline in Percent Predicted Forced Expiratory Volume in 1 Second (FEV1), Mean (Standard Deviation): −2.5 (14.7) percent predicted FEV1
Lung function; Cohort 2: 200 mg BID, Cycle 14, Day 1
  Change From Baseline in Percent Predicted Forced Expiratory Volume in 1 Second (FEV1), Mean (Standard Deviation): 0.0 (—) percent predicted FEV1
Lung function; Cohort 2: 200 mg BID, Cycle 15, Day 1
  Change From Baseline in Percent Predicted Forced Expiratory Volume in 1 Second (FEV1), Mean (Standard Deviation): −2.3 (5.1) percent predicted FEV1
Lung function; Cohort 2: 200 mg BID, Cycle 16, Day 1
  Change From Baseline in Percent Predicted Forced Expiratory Volume in 1 Second (FEV1), Mean (Standard Deviation): −8.0 (15.6) percent predicted FEV1
Lung function; Cohort 2: 200 mg BID, Cycle 17, Day 1
  Change From Baseline in Percent Predicted Forced Expiratory Volume in 1 Second (FEV1), Mean (Standard Deviation): −6.0 (7.2) percent predicted FEV1
Lung function; Cohort 2: 200 mg BID, Cycle 18, Day 1
  Change From Baseline in Percent Predicted Forced Expiratory Volume in 1 Second (FEV1), Mean (Standard Deviation): −7.5 (10.6) percent predicted FEV1
Lung function; Cohort 2: 200 mg BID, Cycle 19, Day 1
  Change From Baseline in Percent Predicted Forced Expiratory Volume in 1 Second (FEV1), Mean (Standard Deviation): −6.3 (5.5) percent predicted FEV1
Lung function; Cohort 2: 200 mg BID, Cycle 25, Day 1
  Change From Baseline in Percent Predicted Forced Expiratory Volume in 1 Second (FEV1), Mean (Standard Deviation): −12.5 (3.5) percent predicted FEV1
Lung function; Cohort 2: 200 mg BID, Cycle 27, Day 1
  Change From Baseline in Percent Predicted Forced Expiratory Volume in 1 Second (FEV1), Mean (Standard Deviation): −17.0 (9.9) percent predicted FEV1
Lung function; Cohort 2: 200 mg BID, Cycle 29, Day 1
  Change From Baseline in Percent Predicted Forced Expiratory Volume in 1 Second (FEV1), Mean (Standard Deviation): 17.0 (11.3) percent predicted FEV1
Lung function; Cohort 2: 200 mg BID, Cycle 31, Day 1
  Change From Baseline in Percent Predicted Forced Expiratory Volume in 1 Second (FEV1), Mean (Standard Deviation): −19.5 (10.6) percent predicted FEV1
Lung function; Cohort 2: 200 mg BID, Cycle 33, Day 1
  Change From Baseline in Percent Predicted Forced Expiratory Volume in 1 Second (FEV1), Mean (Standard Deviation): −1.0 (33.9) percent predicted FEV1
Lung function; Cohort 2: 200 mg BID, Cycle 35, Day 1
  Change From Baseline in Percent Predicted Forced Expiratory Volume in 1 Second (FEV1), Mean (Standard Deviation): −2.5 (30.4) percent predicted FEV1
Lung function; Cohort 2: 200 mg BID, Cycle 37, Day 1
  Change From Baseline in Percent Predicted Forced Expiratory Volume in 1 Second (FEV1), Mean (Standard Deviation): −22.0 (—) percent predicted FEV1
Lung function; Cohort 2: 200 mg BID, Cycle 39, Day 1
  Change From Baseline in Percent Predicted Forced Expiratory Volume in 1 Second (FEV1), Mean (Standard Deviation): −23.0 (11.3) percent predicted FEV1
Lung function; Cohort 2: 200 mg BID, Cycle 43, Day 1
  Change From Baseline in Percent Predicted Forced Expiratory Volume in 1 Second (FEV1), Mean (Standard Deviation): −21.0 (—) percent predicted FEV1
Lung function; Cohort 2: 200 mg BID, EOT
  Change From Baseline in Percent Predicted Forced Expiratory Volume in 1 Second (FEV1), Mean (Standard Deviation): −10.1 (15.7) percent predicted FEV1
Lung function; Cohort 3: 400 mg QD, Cycle 2, Day 1
  Change From Baseline in Percent Predicted Forced Expiratory Volume in 1 Second (FEV1), Mean (Standard Deviation): −4.8 (6.7) percent predicted FEV1
Lung function; Cohort 3: 400 mg QD, Cycle 3, Day 1
  Change From Baseline in Percent Predicted Forced Expiratory Volume in 1 Second (FEV1), Mean (Standard Deviation): −1.5 (6.2) percent predicted FEV1
Lung function; Cohort 3: 400 mg QD, Cycle 4, Day 1
  Change From Baseline in Percent Predicted Forced Expiratory Volume in 1 Second (FEV1), Mean (Standard Deviation): −0.2 (8.4) percent predicted FEV1
Lung function; Cohort 3: 400 mg QD, Cycle 5, Day 1
  Change From Baseline in Percent Predicted Forced Expiratory Volume in 1 Second (FEV1), Mean (Standard Deviation): 0.5 (5.9) percent predicted FEV1
Lung function; Cohort 3: 400 mg QD, Cycle 6, Day 1
  Change From Baseline in Percent Predicted Forced Expiratory Volume in 1 Second (FEV1), Mean (Standard Deviation): −0.9 (6.4) percent predicted FEV1
Lung function; Cohort 3: 400 mg QD, Cycle 7, Day 1
  Change From Baseline in Percent Predicted Forced Expiratory Volume in 1 Second (FEV1), Mean (Standard Deviation): −0.9 (11.8) percent predicted FEV1
Lung function; Cohort 3: 400 mg QD, Cycle 8, Day 1
  Change From Baseline in Percent Predicted Forced Expiratory Volume in 1 Second (FEV1), Mean (Standard Deviation): −1.1 (8.0) percent predicted FEV1
Lung function; Cohort 3: 400 mg QD, Cycle 9, Day 1
  Change From Baseline in Percent Predicted Forced Expiratory Volume in 1 Second (FEV1), Mean (Standard Deviation): −3.0 (11.8) percent predicted FEV1
Lung function; Cohort 3: 400 mg QD, Cycle 10, Day 1
  Change From Baseline in Percent Predicted Forced Expiratory Volume in 1 Second (FEV1), Mean (Standard Deviation): 2.7 (3.9) percent predicted FEV1
Lung function; Cohort 3: 400 mg QD, Cycle 11, Day 1
  Change From Baseline in Percent Predicted Forced Expiratory Volume in 1 Second (FEV1), Mean (Standard Deviation): −4.4 (15.8) percent predicted FEV1
Lung function; Cohort 3: 400 mg QD, Cycle 12, Day 1
  Change From Baseline in Percent Predicted Forced Expiratory Volume in 1 Second (FEV1), Mean (Standard Deviation): 0.3 (3.6) percent predicted FEV1
Lung function; Cohort 3: 400 mg QD, Cycle 13, Day 1
  Change From Baseline in Percent Predicted Forced Expiratory Volume in 1 Second (FEV1), Mean (Standard Deviation): −3.5 (13.2) percent predicted FEV1
Lung function; Cohort 3: 400 mg QD, Cycle 14, Day 1
  Change From Baseline in Percent Predicted Forced Expiratory Volume in 1 Second (FEV1), Mean (Standard Deviation): −5.1 (9.1) percent predicted FEV1
Lung function; Cohort 3: 400 mg QD, Cycle 15, Day 1
  Change From Baseline in Percent Predicted Forced Expiratory Volume in 1 Second (FEV1), Mean (Standard Deviation): −6.1 (12.6) percent predicted FEV1
Lung function; Cohort 3: 400 mg QD, Cycle 16, Day 1
  Change From Baseline in Percent Predicted Forced Expiratory Volume in 1 Second (FEV1), Mean (Standard Deviation): −4.5 (7.3) percent predicted FEV1
Lung function; Cohort 3: 400 mg QD, Cycle 17, Day 1
  Change From Baseline in Percent Predicted Forced Expiratory Volume in 1 Second (FEV1), Mean (Standard Deviation): −7.9 (15.5) percent predicted FEV1
Lung function; Cohort 3: 400 mg QD, Cycle 18, Day 1
  Change From Baseline in Percent Predicted Forced Expiratory Volume in 1 Second (FEV1), Mean (Standard Deviation): 4.0 (6.0) percent predicted FEV1
Lung function; Cohort 3: 400 mg QD, Cycle 19, Day 1
  Change From Baseline in Percent Predicted Forced Expiratory Volume in 1 Second (FEV1), Mean (Standard Deviation): 0.5 (8.5) percent predicted FEV1
Lung function; Cohort 3: 400 mg QD, Cycle 25, Day 1
  Change From Baseline in Percent Predicted Forced Expiratory Volume in 1 Second (FEV1), Mean (Standard Deviation): −5.0 (11.4) percent predicted FEV1
Lung function; Cohort 3: 400 mg QD, Cycle 27, Day 1
  Change From Baseline in Percent Predicted Forced Expiratory Volume in 1 Second (FEV1), Mean (Standard Deviation): −10.0 (17.0) percent predicted FEV1
Lung function; Cohort 3: 400 mg QD, Cycle 29, Day 1
  Change From Baseline in Percent Predicted Forced Expiratory Volume in 1 Second (FEV1), Mean (Standard Deviation): 0.0 (1.4) percent predicted FEV1
Lung function; Cohort 3: 400 mg QD, Cycle 31, Day 1
  Change From Baseline in Percent Predicted Forced Expiratory Volume in 1 Second (FEV1), Mean (Standard Deviation): −4.0 (—) percent predicted FEV1
Lung function; Cohort 3: 400 mg QD, Cycle 35, Day 1
  Change From Baseline in Percent Predicted Forced Expiratory Volume in 1 Second (FEV1), Mean (Standard Deviation): −4.0 (—) percent predicted FEV1
Lung function; Cohort 3: 400 mg QD, Cycle 36, Day 1
  Change From Baseline in Percent Predicted Forced Expiratory Volume in 1 Second (FEV1), Mean (Standard Deviation): 5.0 (—) percent predicted FEV1
Lung function; Cohort 3: 400 mg QD, Cycle 39, Day 1
  Change From Baseline in Percent Predicted Forced Expiratory Volume in 1 Second (FEV1), Mean (Standard Deviation): −5.0 (—) percent predicted FEV1
Lung function; Cohort 3: 400 mg QD, Cycle 43, Day 1
  Change From Baseline in Percent Predicted Forced Expiratory Volume in 1 Second (FEV1), Mean (Standard Deviation): −7.0 (—) percent predicted FEV1
Lung function; Cohort 3: 400 mg QD, Cycle 47, Day 1
  Change From Baseline in Percent Predicted Forced Expiratory Volume in 1 Second (FEV1), Mean (Standard Deviation): −5.0 (—) percent predicted FEV1
Lung function; Cohort 3: 400 mg QD, Cycle 49, Day 1
  Change From Baseline in Percent Predicted Forced Expiratory Volume in 1 Second (FEV1), Mean (Standard Deviation): −2.0 (—) percent predicted FEV1
Lung function; Cohort 3: 400 mg QD, EOT
  Change From Baseline in Percent Predicted Forced Expiratory Volume in 1 Second (FEV1), Mean (Standard Deviation): −7.4 (14.9) percent predicted FEV1
BCRP
  inhibition of BCRP: inhibits
